Assay results published in ChEMBL document CHEMBL4813957, “Antitubercular properties of thiazolidin-4-ones - A review” (Eur J Med Chem, 2021).
Converted amounts (≈) assume the structure as drawn.

test system: Mycobacterium tuberculosis variant bovis; experiment: Antimycobacterial activity against Mycobacterium bovis BCG ATCC 35743 measured on 8th to 12th day by nitrate reductase assay; format: functional; settings: BCG str. ATCC 35743, time 8-12 day

SMILES | IC90 [µg/mL]
Cc1cc(NS(=O)(=O)c2ccc(N3C(=O)CSC3c3c(Cl)cccc3Cl)cc2)no1 (stereo not given) | 0.058 (≈ 0.12 µM)
Cc1cc(NS(=O)(=O)c2ccc(N3C(=O)CSC3c3ccc(Cl)cc3)cc2)no1 (stereo not given) | 0.058 (≈ 0.129 µM)
Cc1cc(NS(=O)(=O)c2ccc(N3C(=O)CSC3c3ccc(C(F)(F)F)cc3)cc2)no1 (stereo not given) | 0.058 (≈ 0.12 µM)
Cc1cc(NS(=O)(=O)c2ccc(N3C(=O)CSC3c3c(F)cccc3F)cc2)no1 (stereo not given) | 0.058 (≈ 0.128 µM)
Cc1cc(NS(=O)(=O)c2ccc(N3C(=O)CSC3c3ccc(F)cc3)cc2)no1 (stereo not given) | 0.058 (≈ 0.134 µM)
